Values joined by “and” are separate entries in the source; they are usually repeats but may differ in a detail not shown here. Identical values can stand only once.
Key:
[1] = system: transgenic soybean expressing mutated PPO; test: Soybean segregating T1 individuals, greenhouse spray test (injury 0-9); format: in vivo, Glycine max; settings: 1 week after treatment
[2] = system: transgenic Arabidopsis thaliana plants expressing wildtype or mutated PPO; test: Germination / growth inhibition assay of transgenic Arabidopsis T2 seeds in 48-well plates; settings: growth inhibition seven to ten days after seeding
[3] = transgenic Arabidopsis AMATU_PPO2_F420I
[4] = transgenic Arabidopsis AMATU_PPO2_F420L
[5] = transgenic Arabidopsis AMATU_PPO2_F420M
[6] = transgenic Arabidopsis AMATU_PPO2_R128A_F420I
[7] = transgenic Arabidopsis AMATU_PPO2_R128A_F420L
[8] = transgenic Arabidopsis AMATU_PPO2_R128A_F420M
[9] = transgenic Arabidopsis AMATU_PPO2_R128L
[10] = transgenic Arabidopsis AMATU_PPO2_dG210
[11] = transgenic Arabidopsis AMATU_PPO2_dG210_R128L
[12] = transgenic Arabidopsis AMATU_PPO2_wt

SMILES | Relative tolerance rate as compared to a non-transgenic Arabidopsis plant (non-transgenic = 1.0) [2, 3] | Relative tolerance rate as compared to a non-transgenic Arabidopsis plant (non-transgenic = 1.0) [2, 4] | Relative tolerance rate as compared to a non-transgenic Arabidopsis plant (non-transgenic = 1.0) [2, 5] | Relative tolerance rate as compared to a non-transgenic Arabidopsis plant (non-transgenic = 1.0) [2, 6] | Relative tolerance rate as compared to a non-transgenic Arabidopsis plant (non-transgenic = 1.0) [2, 7] | Relative tolerance rate as compared to a non-transgenic Arabidopsis plant (non-transgenic = 1.0) [2, 8] | Relative tolerance rate as compared to a non-transgenic Arabidopsis plant (non-transgenic = 1.0) [2, 9] | Relative tolerance rate as compared to a non-transgenic Arabidopsis plant (non-transgenic = 1.0) [2, 10] | Relative tolerance rate as compared to a non-transgenic Arabidopsis plant (non-transgenic = 1.0) [2, 11] | Relative tolerance rate as compared to a non-transgenic Arabidopsis plant (non-transgenic = 1.0) [2, 12] | other results
CS(=O)(=O)NC(=O)c1cc(Oc2ccc(C(F)(F)F)cc2Cl)ccc1[N+](=O)[O-] [Fomesafen, fomesafen] | 18 | 23 | 29 | 29 | 29 | 29 | 27 | 29 | 29 | 19 | injury (0-9 point scale) ([1]; SDS10791 AmtuPPX2L R128A_F420I, Fomesafen 600 g ai/ha): 6 and 3 (2×) and 1 (3×) and 4 and 2; injury (0-9 point scale) ([1]; SDS-10642 AmtuPPX2L R128A_F420L, Fomesafen 600 g ai/ha): 0 (4×) and 1 (4×); injury (0-9 point scale) ([1]; SDS-10648 AmtuPPX2L R128A_F420I, Fomesafen 600 g ai/ha): 5 and 3 (6×) and 4; injury (0-9 point scale) ([1]; SDS-10652 AmtuPPX2L L397D_F420V, Fomesafen 600 g ai/ha): 1 (2×) and 2 (2×) and 0 (3×) and 4; injury (0-9 point scale) ([1]; SDS-10787 AmtuPPX2L R128A_F420L, Fomesafen 600 g ai/ha): 1 (2×) and 0 (2×) and 2 (2×) and 5 and 3; injury (0-9 point scale) ([1]; SDS-10985 AmtuPPX2L R128A_F420M, Fomesafen 600 g ai/ha): 3 (3×) and 0 (2×) and 1 (2×) and 5; injury (0-9 point scale) ([1]; SDS-10990 AmtuPPX2L R128A_F420M, Fomesafen 600 g ai/ha): 1 (2×) and 3 and 0 (2×) and 4 and 5 (2×); injury (0-9 point scale) ([1]; SDS-11034 AmtuPPX2L R128A_F420V, Fomesafen 600 g ai/ha): 2 (2×) and 0 (3×) and 1 (3×); injury (0-9 point scale) ([1]; wild type, Fomesafen 600 g ai/ha): 5 (4×) and 4 (4×)
Cc1nn(-c2cc(NS(C)(=O)=O)c(Cl)cc2Cl)c(=O)n1C(F)F [Sulfentrazon, sulfentrazone] | 193 | 111 | 161 | 621 | 717 | – | 186 | 203 | 244 | – | injury (0-9 point scale) ([1]; SDS10791 AmtuPPX2L R128A_F420I, Sulfentrazone 350 g ai/ha): 9 (5×) and 2 (2×) and 1; injury (0-9 point scale) ([1]; SDS10791 AmtuPPX2L R128A_F420I, Sulfentrazone 700 g ai/ha): 3 (3×) and 4 and 9 (3×) and 2; injury (0-9 point scale) ([1]; SDS-10642 AmtuPPX2L R128A_F420L, Sulfentrazone 350 g ai/ha): 1 (2×) and 0 (3×) and 3 (2×) and 2; injury (0-9 point scale) ([1]; SDS-10648 AmtuPPX2L R128A_F420I, Sulfentrazone 350 g ai/ha): 3 (3×) and 4 (2×) and 5 (2×) and 8; injury (0-9 point scale) ([1]; SDS-10648 AmtuPPX2L R128A_F420I, Sulfentrazone 700 g ai/ha): 3 (2×) and 2 and 9 and 4 (4×); injury (0-9 point scale) ([1]; SDS-10652 AmtuPPX2L L397D_F420V, Sulfentrazone 350 g ai/ha): 9 and 6 and 3 (2×) and 5 (2×); injury (0-9 point scale) ([1]; SDS-10787 AmtuPPX2L R128A_F420L, Sulfentrazone 350 g ai/ha): 5 (4×) and 4 and 6 and 9 (2×); injury (0-9 point scale) ([1]; SDS-10985 AmtuPPX2L R128A_F420M, Sulfentrazone 350 g ai/ha): 3 (4×) and 8 and 4 and 1; injury (0-9 point scale) ([1]; SDS-10985 AmtuPPX2L R128A_F420M, Sulfentrazone 700 g ai/ha): 1 and 9 (2×) and 2 (2×) and 3 (2×) and 4; injury (0-9 point scale) ([1]; SDS-10990 AmtuPPX2L R128A_F420M, Sulfentrazone 350 g ai/ha): 3 (4×) and 4 (2×) and 9 (2×); injury (0-9 point scale) ([1]; SDS-10990 AmtuPPX2L R128A_F420M, Sulfentrazone 700 g ai/ha): 3 and 4 (4×) and 9 (3×); injury (0-9 point scale) ([1]; SDS-11034 AmtuPPX2L R128A_F420V, Sulfentrazone 350 g ai/ha): 1 (3×) and 3 (2×) and 9 and 0; injury (0-9 point scale) ([1]; wild type, Sulfentrazone 350 g ai/ha): 9 (5×) and 7 (2×) and 8
CCOC(=O)C(C)OC(=O)c1cc(Oc2ccc(C(F)(F)F)cc2Cl)ccc1[N+](=O)[O-] (centres unmarked) [Lactofen, lactofen] | 17 | 19 | 29 | 27 | 29 | 29 | 22 | 19 | 29 | 8 | –
